Data as given in patent publication US20260137698A1, “CYCLIN-DEPENDENT KINASE 7 INHIBITORS” (JOINT STOCK COMPANY «BIOCAD», priority 2022, published 2026).
Where two headings read alike, the source gives them in different places.

How the values were obtained:
[1] = test system: NCl-H82 (small cell lung cancer); test: Antiproliferative assay on NCl-H82 cells (AlamarBlue, 120 h); type: cell-based; conditions: mean value from several measurements
Protocol: The antiproliferative activity of CDK7 inhibitors according to the present invention was evaluated in a cell test using continuous cell cultures: MDA-MB-468 (triple negative breast cancer, ATCC® HTB-132™) and NCl-H82 (small cell lung cancer, ATCC® HTB-175™) using a viable AlamarBlue dye (Thermo Fisher Scientific Inc, order no. DAL1100). The cells were grown in DMEM (PanEco, order no. C330π) and RPMI-1640 (PanEco, order no. C330π), respectively. The basal growth medium was enriched with L-glutamine at a concentration of 2 mM (PanEco, order no. Φ032) and 10% fetal bovine serum (Gibco, order no. 16140-071). The night before measurement, MDA-MB-468 adherent cells were detached from plastic with a solution of trypsin-EDTA (PanEco, order no. Π039π), the solution was then inactivated by a DMEM complete medium, centrifuged at 1000 RPM (Eppendorf, 5804 R), a suspension of cells was prepared in a DMEM complete medium, introduced into 96-well culture plates (Corning Inc, order no. 3599) at 8×10^3 cells in 100 μl of medium per well. The next day, test compounds were dissolved in DMSO and diluted with a DMEM complete medium to a final concentration ranging from 50 μM to 10 pM. Diluted compounds in a volume of 50 μl were introduced into the plate wells with cells in triplicates (the final concentration of DMSO was no more than 1%) and incubated at 37° C. in an incubator with 5% CO2 for 96 hours. NCl-H82 suspension cell line was prepared on the day of the analysis. 10×10^3 cells in 100 μl of an RPMI-1640 complete medium were added to each well of a 96-well plate. The procedure for sample dilution is as described above. Cells with test compounds were incubated at 37° C. in an incubator with 5% CO2 for 120 hours. Following incubation, […] of AlamarBlue reagent (Thermo Fisher Scientific Inc., order no. DAL1100) was added to the wells, the contents of the plates were stirred in an orbital shaker (Biosan, Latvia), then further incubated for 5.5-6 hours at 37° C. in an incubator with 5% CO2. The number of viable cells was detected using the Infinite M200Pro microplate spectrophotometer (Tecan Group Ltd, Switzerland) by way of measuring a fluorescent signal at an excitation wavelength (λEx) of 540 nm and an emission wavelength (λEm) of 590 nm.
IC50 value was calculated using the Magellan software (Tecan Group Ltd, Switzerland) by approximating experimental points by four-parameter model with the optimization by Levenberg-Marquardt: […]

[2] = test system: MDA-MB-468 (triple negative breast cancer); test: Antiproliferative assay on MDA-MB-468 cells (AlamarBlue, 96 h); type: cell-based; conditions: Homo sapiens, mean value from several measurements
CDK9/Cyclin K = CDK9/Cyclin K (Homo sapiens, UniProt P50750); test: Inhibition of CDK9/Cyclin K kinase activity (ADP-Glo); type: biochemical
Sequence of CDK9/Cyclin K (P50750 whole entry): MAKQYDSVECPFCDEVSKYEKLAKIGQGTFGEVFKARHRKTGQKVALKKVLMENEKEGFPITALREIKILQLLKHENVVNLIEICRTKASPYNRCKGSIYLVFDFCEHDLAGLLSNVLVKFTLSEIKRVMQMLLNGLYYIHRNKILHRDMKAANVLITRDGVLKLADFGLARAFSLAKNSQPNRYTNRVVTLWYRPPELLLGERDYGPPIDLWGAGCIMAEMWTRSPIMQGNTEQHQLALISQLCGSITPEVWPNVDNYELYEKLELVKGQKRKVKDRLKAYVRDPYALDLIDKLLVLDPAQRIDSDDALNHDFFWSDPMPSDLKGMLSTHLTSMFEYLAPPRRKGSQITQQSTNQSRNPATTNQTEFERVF
Sequence of CDK9/Cyclin K (O75909 whole entry partner): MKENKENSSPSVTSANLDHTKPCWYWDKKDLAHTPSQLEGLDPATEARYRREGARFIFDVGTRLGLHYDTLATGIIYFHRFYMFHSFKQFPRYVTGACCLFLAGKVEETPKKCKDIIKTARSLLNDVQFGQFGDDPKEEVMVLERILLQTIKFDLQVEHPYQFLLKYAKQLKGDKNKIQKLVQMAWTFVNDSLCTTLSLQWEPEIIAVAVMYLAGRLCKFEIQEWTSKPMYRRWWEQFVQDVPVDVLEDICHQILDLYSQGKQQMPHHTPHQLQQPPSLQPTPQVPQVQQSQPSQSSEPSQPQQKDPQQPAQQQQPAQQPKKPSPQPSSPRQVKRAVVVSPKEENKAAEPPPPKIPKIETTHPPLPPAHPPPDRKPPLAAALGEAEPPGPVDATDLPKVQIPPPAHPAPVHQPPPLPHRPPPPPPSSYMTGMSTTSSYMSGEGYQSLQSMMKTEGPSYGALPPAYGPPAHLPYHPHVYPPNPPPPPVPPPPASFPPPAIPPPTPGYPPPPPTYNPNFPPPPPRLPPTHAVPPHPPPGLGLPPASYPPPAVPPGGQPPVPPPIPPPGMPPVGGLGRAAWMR
How it was run: (§1)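 ADP-Glo luminescence quantified ATP consumption after a 40-60 minute, 25° C. reaction with ATP plus CDKtide, Histone H1 or PDKtide, following a 10-minute compound–kinase preincubation in DTT-supplemented kinase buffer A. Compounds spanned 11 concentrations from 50 μM in 4-fold dilutions; IC50 fitted to a four-parameter model.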

CDK7/Cyclin H/MNAT1 = CDK7/Cyclin H/MNAT1 (Homo sapiens, UniProt P50613); test: Inhibition of CDK7/Cyclin H/MNAT1 kinase activity (ADP-Glo); type: biochemical
Sequence of CDK7/Cyclin H/MNAT1 (P50613 whole entry): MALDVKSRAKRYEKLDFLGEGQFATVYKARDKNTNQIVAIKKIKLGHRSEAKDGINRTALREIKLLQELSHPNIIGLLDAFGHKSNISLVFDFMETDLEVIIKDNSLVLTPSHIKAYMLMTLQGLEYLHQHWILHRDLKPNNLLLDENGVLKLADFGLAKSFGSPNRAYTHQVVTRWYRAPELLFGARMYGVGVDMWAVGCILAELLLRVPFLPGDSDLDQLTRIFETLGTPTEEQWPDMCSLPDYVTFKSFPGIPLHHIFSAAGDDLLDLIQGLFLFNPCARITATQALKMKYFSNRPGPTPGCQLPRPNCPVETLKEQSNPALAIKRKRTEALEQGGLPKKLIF
Sequence of CDK7/Cyclin H/MNAT1 (P51946 whole entry partner): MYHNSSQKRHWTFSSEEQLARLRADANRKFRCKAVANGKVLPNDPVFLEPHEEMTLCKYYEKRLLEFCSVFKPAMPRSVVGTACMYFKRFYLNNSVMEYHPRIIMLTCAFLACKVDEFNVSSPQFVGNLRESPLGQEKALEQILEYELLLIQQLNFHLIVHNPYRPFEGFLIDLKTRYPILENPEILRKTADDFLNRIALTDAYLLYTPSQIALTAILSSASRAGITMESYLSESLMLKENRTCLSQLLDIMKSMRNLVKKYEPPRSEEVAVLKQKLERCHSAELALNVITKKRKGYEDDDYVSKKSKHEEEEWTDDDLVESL
Sequence of CDK7/Cyclin H/MNAT1 (P51948 whole entry partner): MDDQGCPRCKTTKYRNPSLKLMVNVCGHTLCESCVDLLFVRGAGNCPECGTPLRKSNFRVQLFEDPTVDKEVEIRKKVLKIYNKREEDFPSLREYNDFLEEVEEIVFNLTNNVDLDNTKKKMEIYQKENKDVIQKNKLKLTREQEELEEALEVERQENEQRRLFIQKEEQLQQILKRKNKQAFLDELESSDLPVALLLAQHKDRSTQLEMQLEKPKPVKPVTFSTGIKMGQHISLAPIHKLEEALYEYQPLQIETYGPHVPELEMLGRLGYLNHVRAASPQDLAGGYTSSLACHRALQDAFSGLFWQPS
How it was run: as §1

CDK2/Cyclin A = CDK2/Cyclin A (Homo sapiens, UniProt P24941); test: Inhibition of CDK2/Cyclin A kinase activity (ADP-Glo); type: biochemical
How it was run: as §1

[3] = General cytotoxicity on primary differentiated HepaRG cells (72 h); type: cell-based; conditions: human, general toxicity, mean value from several measurements
How it was run: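 Test compounds spanning 200 μM to 0.2 nM were incubated for 72 hours with primary differentiated HepaRG cells. Cells had been kept one week in supplemented hepatic medium and seeded the night before at 25×10^3 per well, and viability was then measured.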

[4] = Passive membrane permeability through PAMPA artificial membrane, pH 7.4; type: in vitro ADME; conditions: pH 7.4, 10 μmol, 20 hours at room temperature, mean of multiple measurements, read-out: PAMPA passive permeability Pe
Protocol: Passive membrane permeability of the compounds described in the present invention was determined using the PAMPA (parallel artificial membrane permeability assay) model at pH 7.4.
We used a 96-well plate (Corning® BioCoat® Pre-coated PAMPA Plate System, order no. 353015), composed of acceptor and donor parts with cell membrane-modeling PVDF filter pre-impregnated with a lecithin-phospholipid bilayer. The substance (at a concentration of 10 μmol) in a 0.01 M phosphate buffer with pH 7.4 was introduced into a donor well of the plate, and pure buffer was introduced into an acceptor well; afterwards, the both parts were combined and incubated for 20 hours at room temperature so that the compound was redistributed between the two wells and the membrane. Verapamil (USP, USA, order no. 1711202) and propranolol (MCE LLC, USA, cat. no. HY-B0573/CS-2680) were used as control compounds with high and medium permeability. Samples were analyzed by reversed-phase HPLC with UV detection (Agilent 1260 chromatograph with UV detector) by determining their peak areas in the donor and acceptor wells.
Permeability (Pe, cm/s) and retention factor (R, %) in the lipid bilayer were calculated using the formula:
[formula] [formula] • Co is donor-well concentration of the substance at the initial moment of time t (μM); • CA (t) is acceptor-well concentration of the substance at time t (μM); • Vd is donor-well volume (0.3 ml); • Va is acceptor-well volume (0.15 ml).
[formula] • A is filter area (0.3 cm^2); • t is incubation time (72000 s);

[5] = mean of multiple measurement series, ATP 50 μM, read-out: CDK9/Cyclin K IC50
[6] = mean value from several measurements, read-out: IC50 CDK9/Cyclin K
[7] = mean of multiple measurement series, ATP 10 μM, read-out: CDK7/Cyclin H/MNAT1 IC50
[8] = mean value from several measurements, read-out: IC50 CDK7/Cyclin H/MNAT
[9] = mean of multiple measurement series, ATP 50 μM, read-out: CDK2/Cyclin A IC50
[10] = mean value from several measurements, read-out: IC50 CDK2/Cyclin A

| Structure (SMILES) | IC50 [1] | IC50 [2] | IC50 (CDK9/Cyclin K; [5]) | IC50 (CDK9/Cyclin K; [6]) | IC50 (CDK7/Cyclin H/MNAT1; [7]) | IC50 (CDK7/Cyclin H/MNAT1; [8]) | IC50 (CDK2/Cyclin A; [9]) | IC50 (CDK2/Cyclin A; [10]) | Papp at 20 h, 10 μmol [4] | CC50 at 72 h [3] |
| --- | --- | --- | --- | --- | --- | --- | --- | --- | --- | --- |
| Cn1cc(-n2ccc3c(-c4nc(N[C@H]5CCC6(CC6)NC5)ncc4C(F)(F)F)c[nH]c3c2=O)cn1 [CDK7_1199, 3-(2-{[(6S)-4-azaspiro[2.5]octan-6-yl]amino}-5-(trifluoromethyl)py-rimidin-4-yl)-6-(1-methyl-1H-pyrazol-4-yl)-1H,6H,7H-pyrrolo[2,3-c]pyridin-7-one] | < 10 nM | < 10 nM | 843 nM | > 200 nM | < 5 nM | < 5 nM | 3390 nM | > 200 nM | – | – |
| COCCN1CCCc2c(-c3nc(N[C@H]4CCC(C)(C)NC4)ncc3C(F)(F)F)c[nH]c2C1=O [CDK7_1268, 3-(2-{[(3S)-6,6-dimethylpiperidin-3-yl]amino}-5-(trifluoromethyl)py-rimidin-4-yl)-7-(2-methoxyethyl)-1H,4H,5H,6H,7H, 8H-pyrrolo[2,3-c]azepin-8-one] | 10 to 100 nM | 10 to 100 nM | – | > 200 nM | – | – | – | > 200 nM | – | > 2000 nM |
| Nc1ccccc1Oc1nc(N[C@H]2CCCNC2)ncc1C(F)(F)F [CDK7_548, 4-(2-aminophenoxy)-N-[(3S)-piperidin-3-yl]-5-(trifluoromethyl) pyrimidin-2-amine] | – | 10 to 100 nM | – | 5 to 50 nM | – | 5 to 50 nM | – | > 200 nM | 1 to 5 ×10⁻⁶ cm/s | 500 to 2000 nM |
| Cc1nnc2n1CCCc1c(-c3nc(N[C@H]4CCCNC4)ncc3C(F)(F)F)c[nH]c1-2 [CDK7_1236, 4-{5-methyl-3,4,6,13-tetraazatricyclo[8.3.0.0^2,^6]trideca-1(10),2,4,11-tetraen-11-yl}-N-[(3S)-piperidin-3-yl]-5-(trifluoromethyl)py-rimidin-2-amine] | 10 to 100 nM | 10 to 100 nM | – | 50 to 200 nM | – | < 5 nM | – | > 200 nM | – | > 2000 nM |
| Cn1cc(-n2ccc3c(-c4nc(N[C@H]5CCCNC5)ncc4C(F)(F)F)c[nH]c3c2=O)ccc1=O [CDK7_1052, 1-methyl-5-[7-oxo-3-(2-{[(3S)-piperidin-3-yl]amino}-5-(trifluoromethyl)py-rimidin-4-yl)-1H,6H,7H-pyrrolo[2,3-c]pyridin-6-yl]-1,2-dihydropyridin-2-one] | 100 to 1000 nM | 100 to 1000 nM | 479 nM | > 200 nM | < 5 nM | < 5 nM | 12400 nM | > 200 nM | – | > 2000 nM |

More lines, main results first:

| IC50 [1] | IC50 [2] | IC50 (CDK9/Cyclin K; [5]) | IC50 (CDK9/Cyclin K; [6]) | IC50 (CDK7/Cyclin H/MNAT1; [7]) | IC50 (CDK7/Cyclin H/MNAT1; [8]) | IC50 (CDK2/Cyclin A; [9]) | IC50 (CDK2/Cyclin A; [10]) | Papp at 20 h, 10 μmol [4] | Structure (SMILES) | CC50 at 72 h [3] |
| --- | --- | --- | --- | --- | --- | --- | --- | --- | --- | --- |
| 100 to 1000 nM | 100 to 1000 nM | – | 50 to 200 nM | – | 5 to 50 nM | – | > 200 nM | – | O=C(Nc1ccc(N2CCOCC2)cc1)c1cc(-c2nc(N[C@H]3CCCNC3)ncc2C(F)(F)F)c[nH]1 [CDK7_838, N-[4-(morpholin-4-yl)phenyl]-4-(2-{[(3S)-piperidin-3-yl]amino}-5-(trifluoromethyl)pyrimidin-4-yl)-1H-pyrrole-2-carboxamide] | 500 to 2000 nM |
| 10 to 100 nM | 10 to 100 nM | – | 5 to 50 nM | – | < 5 nM | – | > 200 nM | – | CCOC(=O)c1cc(-c2nc(N[C@H]3CCCNC3)ncc2C(F)(F)F)c[nH]1 [CDK7_1020, ethyl 4-(2-{[(3S)-piperidin-3-yl]amino}-5-(trifluoromethyl)py-rimidin-4-yl)-1H-pyrrole-2-carboxylate] | > 2000 nM |
| – | 100 to 1000 nM | – | 5 to 50 nM | – | < 5 nM | – | > 200 nM | < 1 ×10⁻⁶ cm/s | Cc1ccc(Nc2nc(N[C@H]3CCCNC3)ncc2C(F)(F)F)c(P(C)(C)=O)c1 [CDK7_904, N4-[2-(dimethylphos-phoryl)-4-methylphenyl]-N2-[(3S)-piperidin-3-yl]-5-(trifluoromethyl) pyrimidine-2,4-diamine] | > 2000 nM |
| – | 100 to 1000 nM | – | > 200 nM | – | 50 to 200 nM | – | > 200 nM | < 1 ×10⁻⁶ cm/s | FC(F)(F)c1cnc(N[C@H]2CCCNC2)nc1-c1c[nH]c(-c2ccccc2)c1 [CDK7_533, 4-(5-phenyl-1H-pyrrol-3-yl)-N-[(3S)-piperidin-3-yl]-5-(trifluoromethyl) pyrimidin-2-amine] | 500 to 2000 nM |
| – | 10 to 100 nM | – | 5 to 50 nM | – | < 5 nM | – | > 200 nM | 1 to 5 ×10⁻⁶ cm/s | CN(C)C(=O)c1cc(-c2nc(N[C@H]3CCCNC3)ncc2C(F)(F)F)c[nH]1 [CDK7_536, N,N-dimethyl-4-(2-{[(3S)-piperidin-3-yl]amino}-5-(trifluoromethyl)pyrimidin-4-yl)-1H-pyrrole-2-carboxamide] | 500 to 2000 nM |
| – | 100 to 1000 nM | – | 5 to 50 nM | – | < 5 nM | – | > 200 nM | < 1 ×10⁻⁶ cm/s | CP(C)(=O)c1ccccc1Nc1nc(N[C@H]2CCCNC2)ncc1C(F)(F)F [CDK7_735, N4-[2-(dimethylphos-phoryl)phenyl]-N2-[(3S)-piperidin-3-yl]-5-(trifluoromethyl) pyrimidine-2,4-diamine] | > 2000 nM |
| – | < 10 nM | – | 5 to 50 nM | – | < 5 nM | – | > 200 nM | < 1 ×10⁻⁶ cm/s | CN1Cc2c(-c3nc(N[C@H]4CCCNC4)ncc3C(F)(F)F)c[nH]c2C1=O [CDK7_944, 5-methyl-3-(2-{[(3S)-piperidin-3-yl]amino}-5-(trifluoromethyl)pyrimidin-4-yl)-1H,4H,5H,6H-pyrrolo[2,3-c]pyrrol-6-one] | < 100 nM |
| – | 100 to 1000 nM | – | 5 to 50 nM | – | 5 to 50 nM | – | > 200 nM | < 1 ×10⁻⁶ cm/s | Cn1cc(NC(=O)c2cc(-c3nc(N[C@H]4CCCNC4)ncc3C(F)(F)F)c[nH]2)cn1 [CDK7_835, N-(1-methyl-1H-pyrazol-4-yl)-4-(2-{[(3S)-piperidin-3-yl]amino}-5-(trifluoromethyl)pyrimidin-4-yl)-1H-pyrrole-2-carboxamide] | > 2000 nM |
